Experimental data taken from PubChem BioAssay (NCI).
Several values for one entry are separate records, joined by “and”; a condition that tells them apart may be missing. Identical values can stand only once.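 Test compounds were applied to cells in 96-well plates for 48 hours at 5 doses. GI50 marks 50% less growth. At the TGI there is no net growth.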

What was measured:
Assay in all cases: NCI anticancer screen, dose series, 48 h
COLO 205 colon = tested on: COLO 205 colon
PC-3 prostate = tested on: PC-3 prostate
DU-145 prostate = tested on: DU-145 prostate
HOP-62 NSCLC = tested on: HOP-62 NSCLC
KM12 colon = tested on: KM12 colon
SF-295 CNS = tested on: SF-295 CNS
HT29 colon = tested on: HT29 colon
BT-549 breast = tested on: BT-549 breast
T-47D breast = tested on: T-47D breast
NCI-H226 lung = tested on: NCI-H226 lung

Row | SMILES | TGI (COLO 205 colon) | TGI (PC-3 prostate) | TGI (DU-145 prostate) [µM] | TGI (HOP-62 NSCLC) [µM] | TGI (KM12 colon) [µM] | TGI (SF-295 CNS) [µM] | TGI (HT29 colon) | TGI (BT-549 breast) | TGI (T-47D breast) [µM] | TGI (NCI-H226 lung) | GI50 (COLO 205 colon) [µM] | GI50 (PC-3 prostate) | GI50 (DU-145 prostate) [µM] | GI50 (HOP-62 NSCLC) [µM] | GI50 (KM12 colon) | GI50 (SF-295 CNS) [µM] | GI50 (HT29 colon) | GI50 (BT-549 breast) [µM] | GI50 (T-47D breast) | GI50 (NCI-H226 lung)
1 | CCC(C)c1cnc(CC(C)C)c(=O)[nH]1 (stereo not drawn) | > 100 µM | > 100 µM | > 100 | > 100 | > 100 | > 100 | > 100 µM | > 100 µM | > 100 | – | – | – | – | – | – | – | – | – | – | –
2 | CN(C(=O)C1CC1)C1C2CN3CCC(O2)C13 (stereo not drawn) | > 100 µM | – | – | > 100 | > 100 | > 100 | > 100 µM | – | – | > 100 µM | – | – | – | – | – | – | – | – | – | –
3 | C=CC[C@@]1(C#N)C[C@H](C[C@]2(C#N)C[C@H](CCl)OC(C)(C)O2)OC(C)(C)O1 | > 100 µM | – | – | > 100 | > 100 | > 100 | > 100 µM | – | – | > 100 µM | – | – | – | – | – | – | – | – | – | –
4 | NC(=O)C12CCC1C1CCCCC12N1CCOCC1 (stereo not drawn) | – | – | – | > 100 | > 100 | > 100 | > 100 µM | – | – | – | – | – | – | – | – | – | – | – | – | –
5 | ClC1=C(Cl)C(Cl)=C(Cl)C1=Cc1ccc(Cl)cc1Cl | 2.25 µM | 1.64 µM | 3.52 | 3.57 | 2.08 | 3.08 | 6.4 µM | 0.809 µM | 1.3 | – | 0.486 | 0.393 µM | 0.718 | 0.396 | 0.686 µM | 0.733 | 0.33 µM | 0.277 | 0.252 µM | –
6 | CC(=O)Oc1cc(OC(C)=O)c2cc3c(cc2c1OC(C)=O)C(=O)C1(CCCC1)C3=O | 33.9 µM | – | – | 42 | – | 29.9 | 30 µM | – | – | – | – | – | – | – | – | – | – | – | – | –
7 | COc1cc(C(=O)/C=C/c2c(-c3cccs3)nc3ccccn23)cc(OC)c1OC | 3.2 µM | – | 4.81 | 6.75 | 2.79 | > 100 | 4.19 µM | 5.55 µM | 6.79 | 4.3 µM | 1.77 | – | 1.9 | 2.88 | 1.32 µM | 2.24 | 2.09 µM | 1.86 | 1.72 µM | 2.04 µM
8 | Cc1ccc(C(=O)NC(C)C)cc1N=NN(C)C | – | – | – | > 100 | > 100 | > 100 | > 100 µM | – | – | – | – | – | – | – | – | – | – | – | – | –
9 | O=C(Cc1nc2ccccc2s1)C(=O)Nc1ccc(Cl)cc1Cl | > 100 µM | – | – | > 100 | > 100 | > 100 | > 100 µM | – | – | > 100 µM | – | – | – | – | – | – | – | – | – | –
10 | CC(C)(C)[Si](Nc1ccccc1)(c1ccccc1)c1ccccc1 | 29.4 µM | – | – | 31.4 | 27.4 | 26 | 28.7 µM | – | – | 29.8 µM | – | – | – | – | – | – | – | – | – | –
11 | CC(C)[C@H](O)C(=O)N[C@H]1Cc2ccc3c(c2)[C@]24C5=C(N=C(O5)[C@H](C(C)C)NC1=O)c1nc(Cl)c(o1)-c1c(Cl)[nH]c5cccc(c15)-c1cccc2c1N[C@H]4O3 | – | > 10 µM | 0.748 | > 10 | – | 3.87 | 0.183 µM | – | > 10 | 0.0273 µM | – | < 0.001 µM | < 0.001 | – | – | < 0.001 | < 0.001 µM | – | – | –
12 | O=C(Cc1ccccc1)NN1C(=O)C(Cl)C1c1ccccc1 (stereo not drawn) | > 100 µM | – | – | > 100 | > 100 | > 100 | > 100 µM | – | – | > 100 µM | – | – | – | – | – | – | – | – | – | –
13 | C#CCOc1cccc(Nc2ncnc3c2ncn3C2CCN(C(=O)CCl)C2)c1 (stereo not drawn) | – | 53 µM | 37.5 | > 100 | 58.2 | > 100 | 37.4 µM | 26.6 µM | – | > 100 µM | – | 22.6 µM | 19.8 | 33.3 | 23.4 µM | > 100 | 19.4 µM | 12.1 | – | 29.5 µM
14 | O=C1C(Nc2cccc(O)c2)=C(Sc2ccc(Cl)cc2)C(=O)N1Cc1ccccc1 | > 100 µM | 24.7 µM | 33.3 | 35.7 | 27.8 | 24.9 | – | – | > 100 | > 100 µM | 28.2 | 4.66 µM | 12 | 15.8 | 10.6 µM | 7.5 | – | – | 29.1 µM | 32.6 µM
15 | COC(=O)NN=C1C(C)(C)C(=NNC(=O)OC)C1(C)C | > 56 µM | – | – | > 100 | > 100 | > 100 | > 53.6 µM | – | – | > 100 µM | – | – | – | – | – | – | – | – | – | –
16 | CO[C@@]12[C@H](COC(N)=O)C3=C(C(=O)C(C)=C(N)C3=O)N1C[C@@H]1N[C@@H]12 | 5.21 µM and 8.43 µM and 7.05 µM | 17.4 µM and 20 µM and 25.7 µM | – | – | – | – | 12.3 µM and 13 µM and 23.7 µM | 9.38 µM and 6.85 µM and 6.4 µM | – | 3.95 µM and 7.99 µM and 8.8 µM | 1.7 | 2.65 µM and 4.99 µM | – | 0.643 | 1.57 µM and 3.5 µM | – | 1.45 µM and 0.542 µM | 0.799 | 2.25 µM and 1.41 µM | 1.35 µM and 1.45 µM
17 | CN(C)NC(=S)NC12CC3CC(CC(C3)C1)C2 | > 100 µM | – | – | > 100 | > 100 | > 100 | > 100 µM | – | – | > 100 µM | – | – | – | – | – | – | – | – | – | –
18 | CCOC(CN(C)C(=O)OCC(Cl)(Cl)Cl)OCC | > 100 µM | > 100 µM | > 100 | > 100 | > 100 | > 100 | > 100 µM | > 100 µM | – | > 100 µM | – | – | – | – | – | – | – | – | – | –
19 | C[n+]1ccc2[nH]c3ccccc3c2c1 | > 100 µM | – | – | > 100 | > 100 | > 100 | > 100 µM | – | – | > 100 µM | – | – | – | – | – | – | – | – | – | –
20 | CCCCCC/C=C/CCCCCCCc1cccc(O)c1C(=O)O | > 100 µM | – | – | > 100 | > 100 | > 100 | > 100 µM | – | – | – | – | – | – | – | – | – | – | – | – | –
21 | O=C(Nc1cc([N+](=O)[O-])cc([N+](=O)[O-])c1)OC1C2CCC1C1OC1C2 (stereo not drawn) | > 50 µM | – | – | > 50 | > 50 | > 50 | – | – | – | – | – | – | – | – | – | – | – | – | – | –
22 | CCC[CH2][Sn]1([CH2]CCC)[O]CC([CH2][Sn]([c]2ccccc2)([c]2ccccc2)[c]2ccccc2)[O]1 (stereo not drawn) | 23 µM | – | – | – | 25.3 | 30.4 | – | – | – | 38.8 µM | 10.4 | – | – | – | 12.2 µM | 16.2 | – | – | – | 20.7 µM
23 | CN(/C(=N\O)c1ccccc1)c1ccccc1 | > 100 µM | – | – | 58.8 | > 100 | 43.4 | 87.5 µM | – | – | 60 µM | – | – | – | – | – | – | – | – | – | –
